Data as given in patent US20090258786A1, “Controlled release agricultural products and processes for making the same” (priority 2000, published 2009).

Test: Controlled release soil test (irrigated soil burial test)
Format: physicochemical
From the text: To measure the relative solubilities of the products in soil, an irrigated soil burial test was devised such that granules could be retrieved for measurement of their nitrogen content. The following is a description of the test.
Procedure for Controlled Release Soil Test
1. Screen the sample to obtain −6+7 Tyler mesh granules for the test.
4. Place 300 g of potting soil with a 40% moisture content into the container and record the weight.
7. Spread 5 grams of −6+7 Tyler mesh granules over the screen in a single layer and record the weight.
13. Mist 4 g of water into each container and immediately place the lid on container and seal.
14. After the fertilizer granules have been submerged in a humid soil environment for the allotted time (9 hours, 24 hours, and 3 days), the 150 g of soil is removed from the container.
18. Place the fertilizer granules in a laboratory oven to dry at low temperature (50° C.) for 13 hours.
20. Place the dry fertilizer sample into a 125 mL plastic sample bottle containing 20 g of de-ionized water.
21. Allow the sample to dissolve for 3 hours.
22. Place approximately 1 ml aliquot of the sample solution onto the sample stage of a refractometer(e.g., Abbe Refractometer).
23. Record the refractive index and temperature of the solution.
24. Calculate the percent urea retained from the original fertilizer sample.

Structure (SMILES): NC(N)=O [plain urea, urea]
- time in which particles went into solution, soil test: ≤ 9 h
